From patent US10744150B2, “Cyclic dinucleotides as anticancer agents” (BRISTOL-MYERS SQUIBB COMPANY, priority 2017, dated 2020)
Like-named read-outs stand apart in the source and are kept apart here.

What was measured:
IRF3 = assay: STING THP1 reporter assay, IRF pathway (secreted luciferase Lucia, QUANTI-Luc); format: cell-based; settings: THP1-Dual cells, 10% human plasma, 100% activation = 100 μM cGAMP, luciferase readout, read-out: THP1 Reporter Assays EC50 IRF3
In short: (§1)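 Activity is expressed relative to DMSO-only wells and 100% activation by 100 μM cGAMP. Reporter cells in RPMI plus 10% human plasma received serially diluted compound, starting at 100 μM final, for 20 h; secreted SEAP was read at OD620 with QUANTI-Blue, Lucia luminescence with QUANTI-Luc.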

NFkB = assay: STING THP1 reporter assay, NF-κB pathway (SEAP, QUANTI-Blue); format: cell-based; settings: THP1-Dual cells, 10% human plasma, 100% activation = 100 μM cGAMP
In short: as §1

[1] = molecular target: T1, STING WT: His-TVMV-S-hSTING(155-341)-H232R (Homo sapiens, UniProt Q86WV6, H232R); assay: STING HTRF binding assay (time resolved FRET competition), STING WT; settings: 20 nM His-tagged STING cytoplasmic domain, 200 nM fluorescein-labeled cGAMP analog probe, one hour; read-out: HTRF Binding Assays IC50 STING WT
T1 construct: His-TVMV-S-hSTING(155-341)-H232R
T1 sequence (Q86WV6 with tags, fused parts or gaps H232R): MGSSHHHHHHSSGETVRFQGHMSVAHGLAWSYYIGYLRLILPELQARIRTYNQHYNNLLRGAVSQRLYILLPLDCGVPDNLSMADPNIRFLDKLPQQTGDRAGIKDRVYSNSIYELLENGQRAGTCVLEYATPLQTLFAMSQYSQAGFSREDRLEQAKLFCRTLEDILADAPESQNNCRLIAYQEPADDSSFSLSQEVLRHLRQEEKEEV
In short: (§2)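 His-tagged STING cytoplasmic domain (20 nM) was incubated for one hour with 2.5 nM Tb-anti-His antibody, compound and fluorescein-cGAMP analog probe, 200 nM for WT or 40 nM for AQ, in PBS with 0.005% Tween-20 and 0.1% BSA. IC50 came from 4-parameter fits of 11-point percent inhibition.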

[2] = molecular target: T2, STING AQ: His-TVMV-S-hSTING(155-341)-G230A-R293Q (Homo sapiens, UniProt Q86WV6, G230A/H232R/R293Q); assay: STING HTRF binding assay (time resolved FRET competition), STING AQ; settings: 20 nM His-tagged STING cytoplasmic domain, 40 nM fluorescein-labeled cGAMP analog probe, one hour; read-out: HTRF Binding Assays IC50 STING AQ
T2 construct: His-TVMV-S-hSTING(155-341)-G230A-R293Q
T2 sequence (Q86WV6 with tags, fused parts or gaps G230A/H232R/R293Q): as the sequence (Q86WV6 with tags, fused parts or gaps H232R) above, with G99A, R162Q counted along it
In short: as §2

[3] = 20 hours, SEAP readout OD620, read-out: THP1 Reporter Assays EC50 NFkB
[4] = Homo sapiens, THP-1, 20 h, SEAP readout OD620, read-out: THP1 Reporter Assays EC50 NFkB

| Compound | EC50 (IRF3; 20 hours) | EC50 (NFkB; [3]) | IC50 [1] | IC50 [2] | EC50 (IRF3; Homo sapiens, THP-1, 20 h) | EC50 (NFkB; [4]) |
| --- | --- | --- | --- | --- | --- | --- |
| Nc1nc2c(ncn2[C@@H]2C[C@@H]3COP(O)(=S)O[C@H]4[C@@H](F)[C@H](n5cnc6c(N)ncnc65)O[C@@H]4COP(O)(=S)OC[C@H]32)c(=O)[nH]1 (single isomer, unassigned) [Example 18-2] | > 100 µM | > 100 µM | 0.15 µM | 0.02 µM | – | – |
| Nc1nc2c(ncn2[C@@H]2C[C@@H]3COP(O)(=S)O[C@H]4[C@@H](F)[C@H](n5cnc6c(N)ncnc65)O[C@@H]4COP(O)(=S)OC[C@H]32)c(=O)[nH]1 (single isomer, unassigned) [Example 18-3] | > 100 µM | > 100 µM | 0.52 µM | 0.02 µM | – | – |
| Nc1nc2c(ncn2[C@@H]2C[C@@H]3COP(O)(=S)O[C@H]4[C@@H](F)[C@H](n5cnc6c(N)ncnc65)O[C@@H]4COP(O)(=S)OC[C@H]32)c(=O)[nH]1 (single isomer, unassigned) [Example 18-4] | > 100 µM | 74.5 µM | 0.05 µM | 0.004 µM | – | – |
| Nc1ncnc2c1ncn2[C@@H]1C[C@@H]2COP(=O)(O)O[C@H]3[C@@H](F)[C@H](n4cnc5c(N)ncnc54)O[C@@H]3COP(=O)(O)OC[C@H]21 [Example 10, (1R,6S,8R,9R,15R,17R,18R)-8,17-bis(6-amino-9H-purin-9-yl)-18-fluoro-3,12-dihydroxy-2,4,11,13,16-pentaoxa-3λ^5,12λ^5-diphosphatricyclo[13.3.0.0^6,9]octadecane-3,12-dione] | – | – | 5.2 µM | 0.04 µM | > 100 µM | > 100 µM |
| Nc1ncnc2c1ncn2[C@@H]1C[C@@H]2COP(O)(=S)O[C@H]3[C@@H](O)[C@H](n4cnc5c(O)ncnc54)O[C@@H]3COP(O)(=S)OC[C@H]21 (stereo partly drawn) [Example 16, (1S,6S,8R,9R,15R,17R,18R)-8-(6-amino-9H-purin-9-yl)-3,12,18-trihydroxy-17-(6-hydroxy-9H-purin-9-yl)-2,4,11,13,16-pentaoxa-3λ^5,12λ^5-diphosphatricyclo[13.3.0.0^6,9]octadecane-3,12-dithione] | – | – | 17.9 µM | 0.23 µM | > 100 µM | 31 µM |
